# Laboratory results taken from patent US8278072B1, “Method for synthesis of sialylated products using reversible sialylation” (Health Research, Inc., priority 2007, dated 2012).
# Columns and labels:
# Assay type in all cases: biochemical
# ST3Gal-II [1] = target: T1, ST3Gal-II (Rattus norvegicus, UniProt Q11205); assay: Effect of O-glycans with sialyl or sulfo substituents on reverse sialylation from [9-3H] sialyl fetuin; settings: 6.0 mM compound, [9-3H] sialyl fetuin donor, 20 mM 5′-CMP, 20 h
# T1 construct: purchased Calbiochem
# T1 sequence (Q11205 1-350): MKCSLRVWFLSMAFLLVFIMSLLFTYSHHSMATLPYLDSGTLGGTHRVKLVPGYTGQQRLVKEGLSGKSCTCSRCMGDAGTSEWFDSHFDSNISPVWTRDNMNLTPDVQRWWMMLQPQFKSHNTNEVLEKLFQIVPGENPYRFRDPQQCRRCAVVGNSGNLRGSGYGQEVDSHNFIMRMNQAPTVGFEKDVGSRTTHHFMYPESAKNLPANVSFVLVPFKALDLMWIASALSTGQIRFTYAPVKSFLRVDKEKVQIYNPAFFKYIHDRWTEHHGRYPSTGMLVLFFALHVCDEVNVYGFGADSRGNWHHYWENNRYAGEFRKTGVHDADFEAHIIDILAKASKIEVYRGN
# Procedure: FIG. 6. Effect of sialyl or sulfo substituents in O-glycan chain on the reverse sialylation by ST3Gal-II. Incubation mixtures (600 μl) contained [9-^3H] sialyl fetuin (5 mg), 200 mM NaCa Codylate pH 6.0, 20 mM 5′-CMP, […] ST3Gal-II and the following: a. 6.0 mM NeuAcα2,3Galβ1,4GlcNAcβ1,6 (Galβ1,3)GalNAcα-O-Bn, b. 6.0 mM 3-O-SulfoGalβ1,4GlcNAcβ1,6(Galβ1,3)GalNAcα-O-Bn or c. 6.0 mM Galβ1,6GlcNAcβ1,6(3-O-Sulphoβ1,3Gal)GalNAcα-O-Bn along with 50 mU ST3Gal-III. Products were fractionated using Biogel P2 column after 20 h at 37° C. Unused [9-^3H] sialyl fetuin (peak 1) appears prior to [9-^3H]Sialyl product from acceptor (peak 2) and CMP-[9-^3H]NeuAc (peak 3). Product identities were verified using LC-MS as indicated by molecular weights noted in the panels.
# For these studies, [9-^3H] sialyl fetuin was prepared by the action of ST3Gal-II on fetuin in the presence of CMP-[9-^3H]NeuAc. Radioactivity incorporation into the O-glycan chain of the glycoprotein was confirmed by treating the labeled molecule with alkaline borohyrdride (1MNaBH4 in 0.1MNaOH at 45° C. for 24 hours) and detecting the released radioactivity. During these studies, sialyl fetuin was incubated with 5′-CMP, one of the above mentioned compounds, and sialyltransferase for 20 hours, and the product formed was eluted using a Biogel P2 column. […] Consequently no radioactivity was associated with the acceptor. […] The use of distinct compounds to differentially alter reverse and forward sialylation function further supports the concept that ST3Gal-II may have more than one catalytic function.
# ST3Gal-II [2] = target: T1, ST3Gal-II; assay: Serial transfer of sialic acid from donor via 5′-CMP to acceptors (scheme-II)
# Procedure: FIG. 3. Serial transfer of sialic acid using scheme-II was followed at increasing concentrations of acceptor D-Fucβ1,3GalNAcα-O-Bn. The donor used was either: i) 0.15 mM [9-^3H]CMP-NeuAc; or, ii) 0.15 mM [9-^3H]NeuAcα2,3Galβ1,3(4-FGlcNAcβ1,6)GalNAcα-O-Bn [9-^3H [2]] in the presence of 2.0 mM 5′-CMP, or iii) [9-^3H]NeuAcα2,3Galβ1,3(6-O-SulfoGlcNAcβ1,6)GalNAcα-O—Al [[9-^3H] [4]] in the presence of 2.0 mM 5′-CMP. In runs where [9-^3H [2]] was donor since both and [2] bind C18 cartridges, control runs were performed in the absence of D-Fucβ1,3GalNAcα-O-Bn to estimate the amount of [9-^3H]CMP-NeuAc formed under the experimental conditions. 80-85% of the radioactivity was transferred to CMP-NeuAc in these runs. The amount of CMP-NeuAc remaining in runs with was then subtracted from CMP-NeuAc radioactivity in the control run to determine the amount of sialylated. To complement this run, studies were also performed with [[9-^3H] […] In these runs, the amount of sialylated was determined by measuring radioactivity retained in the C18-cartridge. a. Equilibrium constant was 5.55 when CMP-[9-^3H]NeuAc was donor. b. ˜10-fold lower acceptor concentration was required for similar extents of reaction when CMP-[9-^3H]NeuAc was donor, compared to core-2 based donors and [4].
# We tested the possibility that CMP-NeuAc formed above may be available for transfer to other acceptors using ST3Gal-II (scheme-II, FIG. 3). For this, three radiolabeled donors were prepared using methods described above: two were based on the mucin Core-2 structure ([[9-^3H] [1]] and [9-^3H]NeuAcα2,3Galβ1,3(6-O-SulfoGlcNAcβ1,6)GalNAcα-O—Al [[9-^3H] [4]]) while the third was based on the Globo glycolipid ([9-^3H] [3]). The transfer of [9-^3H]NeuAc from these sialylated donors to various T-hapten (Galβ1,3GalNAcα) and mucin core2-based glycoside acceptors in the presence of 5′-CMP and ST3Gal-II was assessed (Table III). All three […] of ST3Gal-II ([1], [3] and [4]) allowed formation of CMP-[9-^3H]NeuAc, and a diverse array of products.
# The transfer of [9-^3H]NeuAc from [[9-^3H][1]] to D-Fucβ1,3GalNAcα-O-Bn in the presence of 5′-CMP and ST3Gal-II increased linearly in the first two hours and it reached saturation at 4 hours (FIG. 12), and thus the data in Table III (4 hours time point) represent equilibrium conditions. […] Further, diverse sialylated products can be formed using the same synthetic sialylated donor.
# In order to compare the efficiency of individual reactions of scheme II, independent runs were performed where either 0.15 mM [9-^3H]CMP-NeuAc, 0.15 mM [9-^3H] [2] or 0.15 mM [9-^3H] [4] was the donor, and [5] was the acceptor (FIG. 3). 2 mM 5′-CMP was added in runs with core-2 donors and [4], and thus reverse sialylation of these molecules was feasible. Keq for transfer of sialic acid from CMP-NeuAc to [5] was 5.55 (FIG. 3a). […] (˜6 mM) or [9-^3H[4]] (˜6 mM). Thus, while the two-step mechanism results in lower conversion than CMP-NeuAc alone, the transfer of NeuAc still takes place at an appreciable rate.
# ST3Gal-II [3] = target: T1, ST3Gal-II; assay: Reverse sialylation equilibrium constant (Keq) and 5′-CMP dose dependence; settings: for Keq (dimensionless units), reverse sialylation equilibrium constant: acceptor 5′-CMP
# Procedure: FIG. 2. Equilibrium constant. a. Reversible sialyltransferase activity at increasing concentration of 5′-CMP. 0.15 mM of donor [9-^3H]NeuAcα2,3Galβ1,3(4-FGlcNAcβ1,6)GalNAcα-O-Bn [9-^3H[2]] was incubated with varying concentrations of 5′-CMP and 0.15 mU ST3Gal-II under conditions described in FIG. 1 for 2 hours. The consumption of the [9-^3H]NeuAc benzyl glycoside donor was measured by subjecting the incubation mixture to Sep-Pak C18 fractionation, which binds the donor and not CMP-[9-^3H]NeuAc. The reaction proceeded to ½ the maximum extent at 80 μM 5′-CMP. b. Equilibrium constant Keq (=0.35) calculated for data in panel a. c. Varying concentrations of 5′-CMP was sialylated with ST3Gal-II (2.0 mU) using either 0.15 mM (panel c) or 1.5 mM (not shown) sialyl donor [9-^3H]NeuAcα2,3Galβ1,3GalNAcβ1,3Galα-O-Me [9-^3H[3]] for 4 hours. The product CMP-[9-^3H]NeuAc and the unused [9-^3H[3]] were separated and quantitated by Dowex-1-Formate method. d. Equilibrium constant, Keq=98.9. Diamonds denote data from 1.5 mM runs while data from 0.15 mM runs are depicted by squares.
# a) Biogel P2 chromatography: A Biogel P2 column (Fine Mesh; 1.0×116.0 cm) was used with 0.1 M pyridine acetate (pH5.4) as the eluent at room temperature. […] Fractions of 1.0 ml were collected. The bound material was then eluted with 0.5M GlcNAc or 0.2M Gal in the same buffer. […] Calculation of equilibrium constant, Keq: Equilibrium constant was calculated for selected reversible bimolecular reactions that are denoted by:
# [formula] Here, [9-^3H]D* denotes the radiolabeled donor and D′ is the donor after removal of sialic acid. Similarly, A and [9-^3H]A* denote the acceptor before and after incorporation of NeuAc. In each run, unreacted [9-^3H]D* and product [9-^3H] A* are measured using radioactivity measurements. The equilibrium constant (Keq=kreverse/kforward, dimensionless units) are then determined using the following equation, where terms in square brackets denote concentrations:
# [formula] [D0] and [A0] are initial donor and acceptor concentrations. A plot of [D*]/([D0]−[D*]) versus [A*]/([A0]−[A*]) yields Keq from slope data. Keq<1 implies that the forward reaction is favored and the reaction proceeds to the right side to form [9-^3H]A* efficiently. Liquid Chromatography Coupled with Tandem Mass Spectrometry (LC/MS/MS)
# Similar results were observed upon increasing concentrations of 5′-CMP when [9-^3H]NeuAcα2,3Galβ1,3(4-FGlcNAcβ1,6) GalNAcα-O-Bn [9-^3H[2]] was donor (FIG. 2a, b). The concentration of 5′-CMP that mediated half-maximal transfer of [9-^3H]NeuAc was 80 μM. The bimolecular equilibrium constant (Keq) for this reaction was 0.35 (dimensionless units, Table I). Indeed, the Keq varied depending on the donor and it was 98.9 when the donor was based on the globo glycolipid, [9-^3H]NeuAcα2,3Galβ1,3GalNAcβ1,3 Gala-O-Me [[9-^3H] [3]] (FIG. 2c, d). Upon comparing and [3], it is apparent that reverse sialylation proceeds more effectively in the case of [2]. To further confirm the above estimates of Keq for core-2 based structures, we also calculated this parameter for our previously published data where [9-^3H]CMP-NeuAc was donor and mucin core-2 tetrasaccharide Galβ1,4GlcNAcβ1,6(Galβ1,3)GalNAcα-O-Bn was acceptor. In this case, Keq measured with respect to the rate of mucin core-2 sialylation was 5.55 (data not shown), which translates to a reverse sialylation Keq of 0.18.
molecule,measurement,setting,value
"CC(=O)N[C@H]1[C@H](OC[C@H]2O[C@H](OCc3ccccc3)[C@H](NC(C)=O)[C@@H](O[C@@H]3O[C@H](CO)[C@H](O)[C@H](OS(=O)(=O)O)[C@H]3O)[C@H]2O)O[C@H](CO)[C@@H](O[C@@H]2O[C@H](CO)[C@H](O)[C@H](O)[C@H]2O)[C@@H]1O [Galβ1,4GlcNAcβ1,6(3-O-SulfoGalβ1,3)GalNAcα-O-Bn]",Effect on reverse sialylation (CMP-NeuAc formation and product formation),ST3Gal-II [1],permits both the formation of CMP-NeuAc from 5′-CMP
"[9-^3H]NeuAcα2,3Galβ1,3(4-FGlcNAcβ1,6)GalNAcα-O-Bn [[2]]",amount of acceptor [5] required for comparable transfer,"ST3Gal-II [2]; 0.15 mM donor, 2 mM 5′-CMP with core-2 donors",~6 mM
same,radioactivity transferred to CMP-NeuAc,"ST3Gal-II [2]; control runs without acceptor [5], 2.0 mM 5′-CMP",80-85%
same,"Keq (dimensionless units), reverse sialylation equilibrium constant",ST3Gal-II [3]; sialylated donor,0.35
"CC(=O)N[C@H]1[C@H](OC[C@H]2O[C@H](OCc3ccccc3)[C@H](NC(C)=O)[C@@H](O[C@@H]3O[C@H](CO)[C@H](O)[C@H](O)[C@H]3O)[C@H]2O)O[C@H](CO)[C@@H](O[C@@H]2O[C@H](CO)[C@H](O)[C@H](OS(=O)(=O)O)[C@H]2O)[C@@H]1O [3-O-SulfoGalβ1,4GlcNAcβ1,6(Galβ1,3)GalNAcα-O-Bn]",Effect on reverse sialylation (CMP-NeuAc formation and product formation),ST3Gal-II [1],inhibits formation of the intermediate CMP-NeuAc
"NeuAcα2,3Galβ1,4GlcNAcβ1,6(Galβ1,3)GalNAcα-O-Bn",Effect on reverse sialylation (CMP-NeuAc formation and product formation),ST3Gal-II [1],prevents product formation without inhibiting CMP-NeuAc formation
"CC(=O)N[C@H]1[C@H](OC[C@H]2O[C@H](OCc3ccccc3)[C@H](NC(C)=O)[C@@H](O[C@@H]3O[C@H](CO)[C@H](O)[C@H](O)[C@H]3O)[C@H]2O)O[C@H](CO)[C@@H](O[C@@H]2O[C@H](CO)[C@H](O)[C@H](O)[C@H]2O)[C@@H]1O [[10], Galβ1,4GlcNAcβ1,6(Galβ1,3)GalNAcα-O-Bn]","Incorporation of [9-3H]NeuAc from donor [1], percent of the CPM incorporated into [5]","ST3Gal-II [2]; acceptor 2.5 mM, 150 μM donor [1], 1 mM 5′-CMP, 4 hours",20.5%
same,"Incorporation of [9-3H]NeuAc from donor [4], percent of the CPM incorporated into [5]","ST3Gal-II [2]; acceptor 2.5 mM, 150 μM donor [4], 1 mM 5′-CMP, 4 hours",8.4%
same,Keq measured with respect to the rate of mucin core-2 sialylation,"ST3Gal-II [3]; [9-3H]CMP-NeuAc donor, mucin core-2 tetrasaccharide acceptor, calculated for previously published data",5.55
same,"Keq (dimensionless units), reverse sialylation equilibrium constant","ST3Gal-II [3]; translated from Keq 5.55 of mucin core-2 sialylation, previously published data",0.18
